Reference: PubChem BioAssay (NCI)
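Abbreviation: GI50, concentration required for 50% inhibition of growth. Definition used: TGI = concentration required for complete inhibition of growth.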

How the values were obtained:
Assay in all cases: growth of human tumour cells (NCI), 384-well format
[1] = test system: OVCAR-5 ovarian
[2] = test system: HCC-2998 colon
[3] = test system: HCT-15 colon
[4] = test system: TK-10 renal
[5] = test system: ACHN renal
[6] = test system: SN12C renal
[7] = test system: SF-295 CNS
[8] = test system: OVCAR-8 ovarian
[9] = test system: NCI/ADR-RES ovarian
[10] = test system: DU-145 prostate
[11] = test system: SK-MEL-5 melanoma
[12] = test system: HS 578T breast
[13] = test system: SK-OV-3 ovarian
[14] = test system: HOP-62 NSCLC
[15] = test system: A498 renal
[16] = test system: UO-31 renal
[17] = test system: SNB-75 CNS
[18] = test system: MALME-3M melanoma
[19] = test system: MCF7 breast
[20] = test system: KM12 colon
[21] = test system: NCI-H322M lung
[22] = test system: MOLT-4 leukemia
[23] = test system: NCI-H460 NSCLC
[24] = test system: K-562 leukemia
[25] = test system: IGROV1 ovarian
[26] = test system: U251 glioblastoma
[27] = test system: UACC-257 melanoma
[28] = test system: COLO 205 colon
[29] = test system: OVCAR-4 ovarian
[30] = test system: OVCAR-3 ovarian
[31] = test system: PC-3 prostate
[32] = test system: A549 NSCLC
[33] = test system: RPMI-8226 leukemia
[34] = test system: SF-539 CNS
[35] = test system: SF-268 CNS
[36] = test system: LOX IMVI melanoma
[37] = test system: MDA-MB-468 breast
[38] = test system: 786-0 renal
[39] = test system: MDA-MB-435 melanoma
[40] = test system: UACC-62 melanoma
[41] = test system: MDA-MB-231 breast
[42] = test system: RXF 393 renal
[43] = test system: CAKI-1 renal
[44] = test system: HL-60(TB) leukemia
[45] = test system: NCI-H23 lung
[46] = test system: NCI-H226 lung
[47] = test system: CCRF-CEM leukemia

For Cc1[nH]nc2ncc(C(=O)N3CCC[C@H]3c3ccc(Cl)cc3)cc12, the GI50 [1] was > 100 µM, the TGI [1] was > 100 µM and the GI50 [2] was 32.3 µM. For the same molecule, the TGI [2] was > 100 µM, the GI50 [3] was > 78.6 µM and the TGI [3] was > 100 µM. For the same molecule, the GI50 [4] was 80.6 µM, the TGI [4] was > 100 µM and the GI50 [5] was 22.1 µM. The TGI [5] was 62 µM, the GI50 [6] was > 100 µM and the TGI [6] was > 100 µM. For the same molecule, the GI50 [7] was 55.2 µM, the TGI [7] was > 100 µM and the GI50 [8] was > 100 µM. For the same molecule, the TGI [8] was > 100 µM, the GI50 [9] was 30.8 µM and the TGI [9] was > 100 µM. For the same molecule, the GI50 [10] was > 100 µM, the TGI [10] was > 100 µM and the GI50 [11] was 50.8 µM. For the same molecule, the TGI [11] was > 100 µM, the GI50 [12] was 41.4 µM and the TGI [12] was > 100 µM. The GI50 [13] was > 100 µM, the TGI [13] was > 100 µM and the GI50 [14] was > 54.9 µM. For the same molecule, the TGI [14] was > 100 µM, the GI50 [15] was 39 µM and the TGI [15] was > 100 µM. For the same molecule, the GI50 [16] was 46.6 µM, the TGI [16] was > 100 µM and the GI50 [17] was > 78.1 µM. For the same molecule, the TGI [17] was > 100 µM, the GI50 [18] was > 100 µM and the TGI [18] was > 100 µM. The GI50 [19] was 31.8 µM, the TGI [19] was > 100 µM and the GI50 [20] was 31.5 µM. The TGI [20] was > 85.1 µM, the GI50 [21] was > 100 µM and the TGI [21] was > 100 µM. The GI50 [22] was 25.5 µM, the TGI [22] was > 72.7 µM and the GI50 [23] was 60.4 µM. For the same molecule, the TGI [23] was > 100 µM, the GI50 [24] was 20.9 µM and the TGI [24] was 44.1 µM. The GI50 [25] was 44.7 µM, the TGI [25] was > 100 µM and the GI50 [26] was 51.7 µM. For the same molecule, the TGI [26] was > 100 µM, the GI50 [27] was > 100 µM and the TGI [27] was > 100 µM. For the same molecule, the GI50 [28] was 33.6 µM, the TGI [28] was 83.4 µM and the GI50 [29] was > 100 µM. For the same molecule, the TGI [29] was > 100 µM, the GI50 [30] was 26.1 µM and the TGI [30] was 99.8 µM. For the same molecule, the GI50 [31] was 48.9 µM, the TGI [31] was > 100 µM and the GI50 [32] was > 100 µM. The TGI [32] was > 100 µM, the GI50 [33] was 54.5 µM and the TGI [33] was > 100 µM. The GI50 [34] was > 91.4 µM, the TGI [34] was > 100 µM and the GI50 [35] was > 100 µM. For the same molecule, the TGI [35] was > 100 µM, the GI50 [36] was 60.6 µM and the TGI [36] was > 100 µM. It also gave a GI50 [37] of 21.2 µM, a TGI [37] of 68.5 µM and a GI50 [38] of 52.8 µM. For the same molecule, the TGI [38] was > 100 µM, the GI50 [39] was > 100 µM and the TGI [39] was > 100 µM. The GI50 [40] was 23.4 µM, the TGI [40] was 48.6 µM and the GI50 [41] was > 100 µM. The TGI [41] was > 100 µM, the GI50 [42] was 19.7 µM and the TGI [42] was 46.7 µM. The GI50 [43] was > 100 µM, the TGI [43] was > 100 µM and the GI50 [44] was 19.7 µM. For the same molecule, the TGI [44] was 34.3 µM, the GI50 [45] was 36.6 µM and the TGI [45] was > 100 µM. For the same molecule, the GI50 [46] was 39.1 µM, the TGI [46] was > 100 µM and the GI50 [47] was 15.6 µM. For the same molecule, the TGI [47] was 30.6 µM.
